# Experimental data: US20100120013A1, “PROCEDURE FOR LONG TERM CORNEAL CULTURE” (MB RESEARCH LABORATORIES, INC., priority 2008, published 2010)
# Tested on: excised cultured porcine corneas
# Details: pig, 5 min, 100 %
# Method: The toxicological ocular irritation and recovery testing procedure is conducted on excised corneas (53), FIG. 7, according to the following steps. • a) The toxicological ocular irritation and recovery testing procedure begins approximately 24 hours after the corneas are excised. This allows the corneas to be placed in a custom culture media (55) to equilibrate to the culture conditions for 24 hours (57). […] Unsuccessfully treated corneas are discarded (73). • j) The toxicity of the test material is determined by measuring cell vitality, death, or impairment in the cultured corneal tissue via confocal microscopy paired with various vital dyes, whether colored or fluorescent. […]
# Also further included is a method for measuring cell death or impairment with NaFL in the cultured corneal tissue according to the following steps. • i) On days “1”, “2”, “3”, “7”, “10”, “14”, and “21” of the toxicological ocular irritation and recovery testing procedure, the percentage of damaged corneal tissue area is determined by staining with 2% sodium fluorescein (NaFL) stain as in the Draize rabbit eye test. • ii) The culture media is examined microscopically throughout the toxicological ocular irritation and recovery testing procedure for presence of contamination.
smiles,measurement,value
CCO [ethanol],time in culture at which dosed corneas no longer retain NaFL stain (recovery),3 to 10 days
